Test results taken from patent publication US20260116920A1, “HUMAN TRANSFERRIN RECEPTOR BINDING PEPTIDE” (PEPTIDREAM INC., priority 2021, published 2026).
pKd: −log10 of the molar value. Positions of bridges follow the written chain, without caps; N, C: chain ends. Non-standard residues stand in square brackets, D forms with d. Residues, ends and D or L forms follow the SMILES beside them. *: point of attachment. Trp(1-CH2COOH) = N[C@@H](Cc1cn(CC(=O)O)c2ccccc12)C(=O)O; NMePhe(3-Cl) = CN[C@@H](Cc1cccc(Cl)c1)C(=O)O; 3Pal(6-NH2) = Nc1ccc(C[C@H](N)C(=O)O)cn1; Lys(N3) = [N-]=[N+]=NCCCC[C@H](N)C(=O)O; NMeY = CN[C@@H](Cc1ccc(O)cc1)C(=O)O; 3Pal = N[C@@H](Cc1cccnc1)C(=O)O; 4Pal = N[C@@H](Cc1ccncc1)C(=O)O; Carboxymethyl = O=C(O)C*

What follows are compounds tested against T1, human transferrin receptor (hTfR) (Homo sapiens, UniProt P02786) (assay: Evaluation of molecular interaction between transferrin receptor (hTfR) and peptide using surface plasmon resonance (SPR)). Settings: KD class for binding to hTfR by SPR; peptide with the linker shown in the same line; 'low signal indicates no activity'; read-out: SPR.
T1 construct: made in house
T1 sequence (P02786 89-760 limits assumed): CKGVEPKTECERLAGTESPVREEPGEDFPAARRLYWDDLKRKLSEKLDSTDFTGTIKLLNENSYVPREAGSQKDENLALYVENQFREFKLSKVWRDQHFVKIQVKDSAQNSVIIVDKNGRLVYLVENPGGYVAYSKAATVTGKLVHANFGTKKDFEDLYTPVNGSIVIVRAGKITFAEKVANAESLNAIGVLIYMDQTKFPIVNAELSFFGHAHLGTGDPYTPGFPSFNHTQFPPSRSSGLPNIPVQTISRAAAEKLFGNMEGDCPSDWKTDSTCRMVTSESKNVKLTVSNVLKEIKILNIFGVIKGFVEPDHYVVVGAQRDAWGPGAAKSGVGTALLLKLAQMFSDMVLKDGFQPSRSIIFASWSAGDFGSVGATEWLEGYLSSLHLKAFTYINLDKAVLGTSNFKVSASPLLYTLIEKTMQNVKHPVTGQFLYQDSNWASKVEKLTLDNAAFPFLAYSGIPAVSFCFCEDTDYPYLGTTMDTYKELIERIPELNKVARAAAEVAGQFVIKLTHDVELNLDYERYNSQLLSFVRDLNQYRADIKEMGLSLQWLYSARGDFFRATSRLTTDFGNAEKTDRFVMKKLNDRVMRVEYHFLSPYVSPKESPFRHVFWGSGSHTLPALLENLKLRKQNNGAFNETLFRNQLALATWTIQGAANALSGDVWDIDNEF
Format: binding
Outline: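 Binding kinetics of peptides to immobilized recombinant human TfR dimer were measured by SPR at 5–100 nM in a single-cycle format, with KD obtained from curve fitting.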

pKd	Structure (SMILES)
7.00 to 9.00	CC[C@H](C)[C@@H]1NC(=O)[C@H](Cc2ccc(OCC(=O)O)cc2)NC(=O)[C@H](Cc2ccc(O)cc2)NC(=O)[C@H](CC(N)=O)NC(=O)[C@H](Cc2cn(CC(=O)O)c3ccccc23)NC(=O)[C@H](C(C)C)NC(=O)[C@H](Cc2cccc(Cl)c2)N(C)C(=O)[C@H](C(C)C)NC(=O)[C@H](C)NC(=O)CSC[C@@H](C(=O)NCC(=O)N[C@@H](CCCCN=[N+]=[N-])C(N)=O)NC(=O)[C@H](Cc2ccc(O)cc2)N(C)C(=O)[C@H](Cc2ccccc2)NC(=O)[C@H](CCCNC(=N)N)NC(=O)[C@H](CCC(=O)NCCOCCOCCOCCOCCOCCOCCOCCOC)NC(=O)[C@H]([C@@H](C)CC)NC1=O [894_3172]
7.00 to 9.00	CC[C@H](C)[C@@H]1NC(=O)[C@H](Cc2ccc(OCC(=O)O)cc2)NC(=O)[C@H](Cc2ccc(O)cc2)NC(=O)[C@H](CC(N)=O)NC(=O)[C@H](Cc2cn(CC(=O)O)c3ccccc23)NC(=O)[C@H](C(C)C)NC(=O)[C@H](Cc2cccc(Cl)c2)N(C)C(=O)[C@H](C(C)C)NC(=O)[C@H](C)NC(=O)CSC[C@@H](C(=O)NCC(=O)N[C@@H](CCCCN=[N+]=[N-])C(N)=O)NC(=O)[C@H](Cc2ccc(O)cc2)N(C)C(=O)[C@H](Cc2ccccc2)NC(=O)[C@H](CCC(=O)NCCOCCOCCOCCOCCOCCOCCOCCOC)NC(=O)[C@H](CCCNC(=N)N)NC(=O)[C@H]([C@@H](C)CC)NC1=O [894_3173]
7.00 to 9.00	CC[C@H](C)[C@@H]1NC(=O)[C@H](Cc2ccc(OCC(=O)O)cc2)NC(=O)[C@H](Cc2ccc(O)cc2)NC(=O)[C@H](CC(N)=O)NC(=O)[C@H](Cc2cn(CC(=O)O)c3ccccc23)NC(=O)[C@H](C(C)C)NC(=O)[C@H](Cc2cccc(Cl)c2)N(C)C(=O)[C@H](C(C)C)NC(=O)[C@H](C)NC(=O)CSC[C@@H](C(=O)NCC(=O)N[C@@H](CCCCN=[N+]=[N-])C(N)=O)NC(=O)[C@H](Cc2ccc(O)cc2)N(C)C(=O)[C@H](Cc2ccccc2)NC(=O)[C@H](CCCNC(=N)N)NC(=O)[C@H](CCC(N)=O)NC(=O)[C@H]([C@@H](C)CC)NC1=O [894_3176]
7.00 to 9.00	CC[C@H](C)[C@@H]1NC(=O)[C@H](Cc2ccc(OCC(=O)O)cc2)NC(=O)[C@H](Cc2ccc(O)cc2)NC(=O)[C@H](CC(N)=O)NC(=O)[C@H](Cc2cn(CC(=O)O)c3ccccc23)NC(=O)[C@H](C(C)C)NC(=O)[C@H](Cc2cccc(Cl)c2)N(C)C(=O)[C@H](C(C)C)NC(=O)[C@H](C)NC(=O)CSC[C@@H](C(=O)NCC(=O)N[C@@H](CCCCN=[N+]=[N-])C(N)=O)NC(=O)[C@H](Cc2ccc(O)cc2)N(C)C(=O)[C@H](Cc2ccccc2)NC(=O)[C@H](CCC(N)=O)NC(=O)[C@H](CCCNC(=N)N)NC(=O)[C@H]([C@@H](C)CC)NC1=O [894_3177]

Further lines, the compound ahead of its results:

Structure (SMILES)	pKd
CC[C@H](C)[C@@H]1NC(=O)[C@H](Cc2ccc(OCC(=O)O)cc2)NC(=O)[C@H](Cc2ccc(O)cc2)NC(=O)[C@H](CC(N)=O)NC(=O)[C@H](Cc2cn(CC(=O)O)c3ccccc23)NC(=O)[C@H](C(C)C)NC(=O)[C@H](Cc2cccc(Cl)c2)N(C)C(=O)[C@H](C(C)C)NC(=O)[C@H](C)NC(=O)CSC[C@@H](C(=O)NCC(=O)N[C@@H](CCCCN=[N+]=[N-])C(N)=O)NC(=O)[C@H](Cc2ccc(O)cc2)N(C)C(=O)[C@H](Cc2ccccc2)NC(=O)[C@H](CCCNC(=N)N)NC(=O)[C@H](CCCNC(=N)N)NC(=O)[C@H]([C@@H](C)CC)NC1=O [894_3171]	7.00 to 9.00
CC[C@H](C)[C@@H]1NC(=O)[C@H](Cc2ccc(OCC(=O)O)cc2)NC(=O)[C@H](Cc2ccc(O)cc2)NC(=O)[C@H](CC(N)=O)NC(=O)[C@H](Cc2cn(CC(=O)O)c3ccccc23)NC(=O)[C@H](C(C)C)NC(=O)[C@H](Cc2cccc(Cl)c2)N(C)C(=O)[C@H](C(C)C)NC(=O)[C@H](C)NC(=O)CSC[C@@H](C(=O)NCC(=O)N[C@@H](CCCCN=[N+]=[N-])C(N)=O)NC(=O)[C@H](Cc2ccc(O)cc2)N(C)C(=O)[C@H](Cc2ccccc2)NC(=O)[C@H](CCC(N)=O)NC(=O)[C@H](CCC(N)=O)NC(=O)[C@H]([C@@H](C)CC)NC1=O [894_3178] ({CH2CO}-AV[NMePhe(3-Cl)]V[Trp(1-CH2COOH)]NYY(Carboxymethyl)IIQQF[NMeY]CG[Lys(N3)]-NH2; thioether N-15)	7.00 to 9.00
CC[C@H](C)[C@@H]1NC(=O)[C@H](Cc2cccnc2)NC(=O)[C@H](Cc2ccc(O)cc2)NC(=O)[C@H](CC(N)=O)NC(=O)[C@H](Cc2cn(CC(=O)O)c3ccccc23)NC(=O)[C@H](C(C)C)NC(=O)[C@H](Cc2cccc(Cl)c2)N(C)C(=O)[C@H](C(C)C)NC(=O)[C@H](C)NC(=O)CSC[C@@H](C(=O)NCC(=O)N[C@@H](CCCCN=[N+]=[N-])C(N)=O)NC(=O)[C@H](Cc2ccc(O)cc2)N(C)C(=O)[C@H](Cc2ccncc2)NC(=O)[C@H](CCCNC(=N)N)NC(=O)[C@H](CCCNC(=N)N)NC(=O)[C@H]([C@@H](C)CC)NC1=O [894_3185] ({CH2CO}-AV[NMePhe(3-Cl)]V[Trp(1-CH2COOH)]NY[3Pal]IIRR[4Pal][NMeY]CG[Lys(N3)]-NH2; thioether N-15)	7.00 to 9.00
CC[C@H](C)[C@@H]1NC(=O)[C@H](Cc2cccnc2)NC(=O)[C@H](Cc2ccc(N)nc2)NC(=O)[C@H](CC(N)=O)NC(=O)[C@H](Cc2cn(CC(=O)O)c3ccccc23)NC(=O)[C@H](C(C)C)NC(=O)[C@H](Cc2cccc(Cl)c2)N(C)C(=O)[C@H](C(C)C)NC(=O)[C@H](C)NC(=O)CSC[C@@H](C(=O)NCC(=O)N[C@@H](CCCCN=[N+]=[N-])C(N)=O)NC(=O)[C@H](Cc2ccc(O)cc2)N(C)C(=O)[C@H](Cc2ccncc2)NC(=O)[C@H](CCCNC(=N)N)NC(=O)[C@H](CCCNC(=N)N)NC(=O)[C@H]([C@@H](C)CC)NC1=O [894_3186] ({CH2CO}-AV[NMePhe(3-Cl)]V[Trp(1-CH2COOH)]N[3Pal(6-NH2)][3Pal]IIRR[4Pal][NMeY]CG[Lys(N3)]-NH2; thioether N-15)	7.00 to 9.00
CC[C@H](C)[C@@H]1NC(=O)[C@H](Cc2ccc(OC)cc2)NC(=O)[C@H](Cc2ccc(N)nc2)NC(=O)[C@H](CC(N)=O)NC(=O)[C@H](Cc2cn(CC(=O)O)c3ccccc23)NC(=O)[C@H](C(C)C)NC(=O)[C@H](Cc2cccc(Cl)c2)N(C)C(=O)[C@H](C(C)C)NC(=O)[C@H](C)NC(=O)CSC[C@@H](C(=O)NCC(=O)N[C@@H](CCCCN=[N+]=[N-])C(N)=O)NC(=O)[C@H](Cc2ccc(O)cc2)N(C)C(=O)[C@H](Cc2ccncc2)NC(=O)[C@H](CCCNC(=N)N)NC(=O)[C@H](CCCNC(=N)N)NC(=O)[C@H]([C@@H](C)CC)NC1=O [894_3187]	7.00 to 9.00
CC[C@H](C)[C@@H]1NC(=O)[C@H](Cc2cccnc2)NC(=O)[C@H](Cc2ccc(O)cc2)NC(=O)[C@H](CC(N)=O)NC(=O)[C@H](Cc2c[nH]c3ccccc23)NC(=O)[C@H](C(C)C)NC(=O)[C@H](Cc2cccc(Cl)c2)N(C)C(=O)[C@H](C(C)C)NC(=O)[C@H](C)NC(=O)CSC[C@@H](C(=O)NCC(=O)N[C@@H](CCCCN=[N+]=[N-])C(N)=O)NC(=O)[C@H](Cc2ccc(O)cc2)N(C)C(=O)[C@H](Cc2ccncc2)NC(=O)[C@H](CCCNC(=N)N)NC(=O)[C@H](CCCNC(=N)N)NC(=O)[C@H]([C@@H](C)CC)NC1=O [894_3188] ({CH2CO}-AV[NMePhe(3-Cl)]VWNY[3Pal]IIRR[4Pal][NMeY]CG[Lys(N3)]-NH2; thioether N-15)	7.00 to 9.00
CC[C@H](C)[C@@H]1NC(=O)[C@H](Cc2cccnc2)NC(=O)[C@H](Cc2ccc(N)nc2)NC(=O)[C@H](CC(N)=O)NC(=O)[C@H](Cc2c[nH]c3ccccc23)NC(=O)[C@H](C(C)C)NC(=O)[C@H](Cc2cccc(Cl)c2)N(C)C(=O)[C@H](C(C)C)NC(=O)[C@H](C)NC(=O)CSC[C@@H](C(=O)NCC(=O)N[C@@H](CCCCN=[N+]=[N-])C(N)=O)NC(=O)[C@H](Cc2ccc(O)cc2)N(C)C(=O)[C@H](Cc2ccncc2)NC(=O)[C@H](CCCNC(=N)N)NC(=O)[C@H](CCCNC(=N)N)NC(=O)[C@H]([C@@H](C)CC)NC1=O [894_3189] ({CH2CO}-AV[NMePhe(3-Cl)]VWN[3Pal(6-NH2)][3Pal]IIRR[4Pal][NMeY]CG[Lys(N3)]-NH2; thioether N-15)	7.00 to 9.00
CC[C@H](C)[C@@H]1NC(=O)[C@H](Cc2ccc(OC)cc2)NC(=O)[C@H](Cc2ccc(N)nc2)NC(=O)[C@H](CC(N)=O)NC(=O)[C@H](Cc2c[nH]c3ccccc23)NC(=O)[C@H](C(C)C)NC(=O)[C@H](Cc2cccc(Cl)c2)N(C)C(=O)[C@H](C(C)C)NC(=O)[C@H](C)NC(=O)CSC[C@@H](C(=O)NCC(=O)N[C@@H](CCCCN=[N+]=[N-])C(N)=O)NC(=O)[C@H](Cc2ccc(O)cc2)N(C)C(=O)[C@H](Cc2ccncc2)NC(=O)[C@H](CCCNC(=N)N)NC(=O)[C@H](CCCNC(=N)N)NC(=O)[C@H]([C@@H](C)CC)NC1=O [894_3190]	7.00 to 9.00
CC[C@H](C)[C@@H]1NC(=O)[C@H](Cc2ccc(OCC(=O)O)cc2)NC(=O)[C@H](Cc2ccc(O)cc2)NC(=O)[C@H](CC(N)=O)NC(=O)[C@H](Cc2cn(CC(=O)O)c3ccccc23)NC(=O)[C@H](C(C)C)NC(=O)[C@H](Cc2cccc(Cl)c2)N(C)C(=O)[C@H](C(C)C)NC(=O)[C@H](C)NC(=O)CSC[C@@H](C(=O)NCC(=O)N[C@H](CCC(=O)O)C(=O)N[C@H](CCC(=O)O)C(=O)N[C@H](CCC(=O)O)C(=O)N[C@H](CO)C(=O)N[C@H](CO)C(=O)N[C@@H](CCCCNC(=O)OC[C@@H]2[C@@H]3CCC#CCC[C@@H]32)C(N)=O)NC(=O)[C@H](Cc2ccc(O)cc2)N(C)C(=O)[C@H](Cc2ccccc2)NC(=O)[C@H](CCCNC(=N)N)NC(=O)[C@H](CCCNC(=N)N)NC(=O)[C@H]([C@@H](C)CC)NC1=O [894_3197]	> 9.00
